In patent publication US9181234B2, “Antibacterial compounds” (priority 2010, dated 2015):
Converted amounts (≈) assume the structure as drawn.

Tests used:
[1] = system: Haemophilus influenzae (Isolate ID ATCC 49247); assay: Antibacterial activity, MIC, H. influenzae; assay type: cell-based; settings: Haemophilus influenzae, ATCC49247; Gram negative strain; broth microdilution or agar dilution
Outline: (§1)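 Susceptibility testing run in liquid or on solid media, with MIC values obtained by the CLSI-described broth microdilution or agar dilution method.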

[2] = system: Staphylococcus aureus (Isolate ID ATCC 29213); assay: Antibacterial activity, MIC, S. aureus; assay type: cell-based; settings: Staphylococcus aureus, ATCC29213, Gram positive strain; broth microdilution or agar dilution
Outline: as §1

[3] = physchem; settings: kinetic from dmso stock
Outline: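 DMSO doubling dilutions were diluted twenty-fold into 100 mM citrate (pH 4), PBS (pH 7.4) or carbonate-bicarbonate (pH 9). After 24 h equilibration at room temperature, absorbance was read at 620 nm. The reported value is the highest concentration without measurable precipitate.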

[4] = system: Enterococcus faecalis (Isolate ID ATCC 29212); assay: Antibacterial activity, MIC, E. faecalis; assay type: cell-based; settings: Enterococcus faecalis, ATCC29212; Gram positive strain; broth microdilution or agar dilution
Method: Bacterial Assay: Determination of Antibacterial Activity
Compounds of the invention were tested for antimicrobial activity by susceptibility testing in liquid or on solid media. MICs for compounds against each strain were determined by the broth microdilution or agar dilution method according to the guidelines of the Clinical Laboratories and Standards Institute, formerly the National Committee for Clinical Laboratory Standards (Clinical Laboratories and Standards Institute. Methods for Dilution Antimicrobial Susceptibility Tests for Bacteria That Grow Aerobically; Approved Standard—Seventh Edition. Document M7-A7. CLSI, Wayne, Pa., 2006; Clinical Laboratories and Standards Institute. The gram positive bacterial strains tested include S. aureus (Staphylococcus aureus (Isolate ID ATCC 29213)), E. faecalis (Enterococcus faecalis (Isolate ID ATCC 29212)) and S. pyogenes (Streptococcus pyogenes (Isolate ID ATCC 51339)). The gram negative bacterial strains tested include H. influenzae (Haemophilus influenzae (Isolate ID ATCC 49247))

[5] = system: Streptococcus pyogenes (Isolate ID ATCC 51339); assay: Antibacterial activity, MIC, S. pyogenes; assay type: cell-based; settings: Streptococcus pyogenes, ATCC51339, Gram positive strain; broth microdilution or agar dilution
Outline: as §1

[6] = pH 7.4, aqueous buffer, Solubility (pH 7.4)
[7] = pH 7.4, aqueous buffer, Solubility Range
[8] = pH 7.4, aqueous buffer, Max Solubility
[9] = pH 7.4, aqueous buffer, Solubility Range (maximum solubility)
[10] = pH 9, aqueous buffer, Max Solubility
[11] = pH 9, aqueous buffer, Solubility Range (maximum solubility)

Row | MIC [1] [µg/mL] | MIC [2] [µg/mL] | solubility at 24 h [3, 6] [µg/mL] | solubility at 24 h [3, 7] [µg/mL] | MIC [4] [µg/mL] | MIC [5] [µg/mL] | solubility at 24 h [3, 8] [µg/mL] | solubility at 24 h [3, 9] [µg/mL] | solubility at 24 h [3, 10] [µg/mL] | solubility at 24 h [3, 11] [µg/mL] | SMILES
1 | > 16 | > 16 | 12.5 (≈ 20.1 µM) | 12.5 to 400 (≈ 20.1 to 643 µM) | > 16 | > 16 | – | – | – | – | CCNC(=O)Nc1nc2cc(-c3cnc(N4CCC(Cc5ccccc5)(C(=O)OCC)CC4)nc3)cc(-c3ccccn3)c2s1 [Compound 177]
2 | 0.25 to 1 (≈ 0.437 to 1.75 µM) | ≤ 0.25 | 100 (≈ 175 µM) | 12.5 to 400 (≈ 21.8 to 699 µM) | ≤ 0.25 | ≤ 0.25 | 100 (≈ 175 µM) | 12.5 to 400 (≈ 21.8 to 699 µM) | – | – | CCNC(=O)Nc1nc2cc(-c3cnc(N4CCC(C)(C(=O)O)CC4)nc3)cc(-c3nccc(OC)c3C#N)c2s1 [Compound 90]
3 | 1 to 16 (≈ 1.74 to 27.8 µM) | ≤ 0.25 | ≥ 800 | > 800 | ≤ 0.25 | ≤ 0.25 | ≥ 800 | > 800 | – | – | CCCC1(C(=O)O)CCN(c2ncc(-c3cc(-c4cc(OC)ccn4)c4sc(NC(=O)NCC)nc4c3)cn2)CC1 [Compound 122]
4 | 1 to 16 (≈ 1.84 to 29.5 µM) | ≤ 0.25 | 6.25 (≈ 11.5 µM) | < 12.5 | ≤ 0.25 | ≤ 0.25 | – | – | – | – | CCNC(=O)Nc1nc2cc(-c3cnc(N4CCC(C)(C(=O)O)CC4)nc3)cc(-c3cc(C#N)ccn3)c2s1 [Compound 16]
5 | > 16 | > 16 | 200 (≈ 378 µM) | 12.5 to 400 (≈ 23.6 to 757 µM) | 1 to 16 (≈ 1.89 to 30.3 µM) | 1 to 16 (≈ 1.89 to 30.3 µM) | – | – | – | – | CCNC(=O)Nc1nc2cc(-c3cnc(N4CCC(C#N)(C(=O)O)CC4)nc3)cc(-c3ccccn3)c2s1 [Compound 130]
6 | ≤ 0.25 | ≤ 0.25 | ≥ 800 | > 800 | ≤ 0.25 | ≤ 0.25 | ≥ 800 | > 800 | – | – | CCNC(=O)Nc1nc2cc(-c3cnc(N4CCC(C)(C(=O)O)CC4)nc3)cc(-c3ncc(C)cn3)c2s1 [Compound 59]
7 | 0.25 to 1 (≈ 0.456 to 1.82 µM) | ≤ 0.25 | ≥ 800 | > 800 | ≤ 0.25 | ≤ 0.25 | ≥ 800 | > 800 | – | – | CCNC(=O)Nc1nc2cc(-c3cnc(N4CCC(C)(C(=O)O)CC4)nc3)cc(-c3cnc(OC)cn3)c2s1 [Compound 56]
8 | 1 to 16 (≈ 1.84 to 29.5 µM) | ≤ 0.25 | 100 (≈ 184 µM) | 12.5 to 400 (≈ 23 to 737 µM) | ≤ 0.25 | ≤ 0.25 | – | – | – | – | CCNC(=O)Nc1nc2cc(-c3cnc(N4CCC(C)(C(=O)O)CC4)nc3)cc(-c3ncccc3C#N)c2s1 [Compound 13]
9 | 0.25 to 1 (≈ 0.445 to 1.78 µM) | ≤ 0.25 | ≥ 800 | > 800 | ≤ 0.25 | ≤ 0.25 | ≥ 800 | > 800 | – | – | CCNC(=O)Nc1nc2cc(-c3cnc(N4CCC(C)(C(=O)O)CC4)nc3)cc(-c3cc(OCC)ccn3)c2s1 [Compound 68]
10 | > 16 | ≤ 0.25 | 12.5 (≈ 21.7 µM) | 12.5 to 400 (≈ 21.7 to 694 µM) | ≤ 0.25 | ≤ 0.25 | – | – | 25 (≈ 43.4 µM) | 12.5 to 400 (≈ 21.7 to 694 µM) | CCCC1(C(=O)O)CCN(c2ncc(-c3cc(-c4nccc(OC)n4)c4sc(NC(=O)NCC)nc4c3)cn2)CC1 [Compound 127]
11 | 1 to 16 (≈ 1.73 to 27.7 µM) | 1 to 16 (≈ 1.73 to 27.7 µM) | 200 (≈ 347 µM) | 12.5 to 400 (≈ 21.7 to 694 µM) | 0.25 to 1 (≈ 0.434 to 1.73 µM) | 0.25 to 1 (≈ 0.434 to 1.73 µM) | – | – | 400 (≈ 694 µM) | 400 to 800 (≈ 694 to 1390 µM) | CCNC(=O)Nc1nc2cc(-c3cnc(N4CCC(C)(C(=O)O)CC4)nc3)cc(-c3cc(=O)n(C(C)C)cn3)c2s1 [Compound 57]
12 | 1 to 16 (≈ 1.88 to 30.1 µM) | ≤ 0.25 | ≥ 800 | > 800 | ≤ 0.25 | ≤ 0.25 | – | – | – | – | CCNC(=O)Nc1nc2cc(-c3cnc(N4CCC(C)(C(=O)O)C(C)C4)nc3)cc(-c3ccccn3)c2s1 (stereo not drawn) [Compound 9]
13 | 1 to 16 (≈ 1.8 to 28.7 µM) | ≤ 0.25 | 12.5 (≈ 22.5 µM) | 12.5 to 400 (≈ 22.5 to 719 µM) | ≤ 0.25 | ≤ 0.25 | – | – | – | – | CCNC(=O)Nc1nc2cc(-c3cnc(N4CCC(CC)(C(=O)O)CC4)nc3)cc(-c3ncccc3C#N)c2s1 [Compound 104]
14 | 1 to 16 (≈ 1.73 to 27.7 µM) | ≤ 0.25 | 100 (≈ 173 µM) | 12.5 to 400 (≈ 21.7 to 694 µM) | ≤ 0.25 | ≤ 0.25 | – | – | ≥ 800 | > 800 | CCCC1(C(=O)O)CCN(c2ncc(-c3cc(-c4cc(OC)ncn4)c4sc(NC(=O)NCC)nc4c3)cn2)CC1 [Compound 121]
15 | 1 to 16 (≈ 1.92 to 30.8 µM) | 0.25 to 1 (≈ 0.481 to 1.92 µM) | ≥ 800 | > 800 | ≤ 0.25 | 0.25 to 1 (≈ 0.481 to 1.92 µM) | – | – | – | – | CCNC(=O)Nc1nc2cc(-c3cnc(N4CCC(C)(C(=O)O)CC4)nc3)cc(-c3cccn3C)c2s1 [Compound 30]
16 | > 16 | ≤ 0.25 | ≥ 800 | > 800 | ≤ 0.25 | ≤ 0.25 | ≥ 800 | > 800 | – | – | CCCC1(C(=O)O)CCN(c2ncc(-c3cc(-c4cc(C#N)ccn4)c4sc(NC(=O)NCC)nc4c3)cn2)CC1 [Compound 123]
17 | 0.25 to 1 (≈ 0.47 to 1.88 µM) | ≤ 0.25 | ≥ 800 | > 800 | ≤ 0.25 | ≤ 0.25 | ≥ 800 | > 800 | – | – | CCNC(=O)Nc1nc2cc(-c3cnc(N4CCC(C)(C(=O)O)CC4)nc3)cc(-c3ccc(C)cn3)c2s1 [Compound 31]
18 | 1 to 16 (≈ 1.99 to 31.8 µM) | 1 to 16 (≈ 1.99 to 31.8 µM) | 100 (≈ 199 µM) | 12.5 to 400 (≈ 24.9 to 796 µM) | 0.25 to 1 (≈ 0.497 to 1.99 µM) | ≤ 0.25 | – | – | – | – | CCNC(=O)Nc1nc2cc(-c3ccc(C4=NOC(C)(C(=O)O)C4)nc3)cc(-c3ccccn3)c2s1 (stereo not drawn) [Compound 183]
19 | 1 to 16 (≈ 1.81 to 29 µM) | ≤ 0.25 | 200 (≈ 363 µM) | 12.5 to 400 (≈ 22.7 to 725 µM) | ≤ 0.25 | ≤ 0.25 | – | – | 400 (≈ 725 µM) | 400 to 800 (≈ 725 to 1450 µM) | CCNC(=O)Nc1nc2cc(-c3cnc(N4CCC(C)(C(=O)O)CC4)nc3)cc(-c3cnc(CC)s3)c2s1 [Compound 77]
20 | 1 to 16 (≈ 1.78 to 28.4 µM) | 0.25 to 1 (≈ 0.444 to 1.78 µM) | ≥ 800 | > 800 | ≤ 0.25 | 0.25 to 1 (≈ 0.444 to 1.78 µM) | ≥ 800 | > 800 | – | – | CCNC(=O)Nc1nc2cc(-c3cnc(N4CCC(C)(C(=O)O)CC4)nc3)cc(-c3nc(OC)ccc3N)c2s1 [Compound 62]
21 | > 16 | 0.25 to 1 (≈ 0.55 to 2.2 µM) | ≥ 800 | > 800 | ≤ 0.25 | 0.25 to 1 (≈ 0.55 to 2.2 µM) | ≥ 800 | > 800 | – | – | CCNC(=O)Nc1nc2cc(-c3cnc(N4CCC(C)(C(=O)O)CC4)nc3)cc(C)c2s1 [Compound 38, 1-{5-[2-(3-Ethyl-ureido)-7-methyl-benzothiazol-5-yl]-pyrimidin-2-yl}-4-methyl-piperidine-4-carboxylic acid]
22 | > 16 | 1 to 16 (≈ 1.75 to 28 µM) | 6.25 (≈ 10.9 µM) | < 12.5 | 0.25 to 1 (≈ 0.437 to 1.75 µM) | 0.25 to 1 (≈ 0.437 to 1.75 µM) | – | – | – | – | CCNC(=O)Nc1nc2cc(-c3cnc(N4CCC(C(=O)OC)(C(F)(F)F)C4)nc3)cc(-c3ccccn3)c2s1 (stereo not drawn) [Compound 180]
23 | 1 to 16 (≈ 1.83 to 29.3 µM) | 0.25 to 1 (≈ 0.457 to 1.83 µM) | 25 (≈ 45.7 µM) | 12.5 to 400 (≈ 22.9 to 732 µM) | ≤ 0.25 | ≤ 0.25 | – | – | 100 (≈ 183 µM) | 12.5 to 400 (≈ 22.9 to 732 µM) | CCNC(=O)Nc1nc2cc(-c3cnc(N4CCC(CC)(C(=O)O)CC4)cn3)cc(-c3nccc(C)n3)c2s1 [Compound 112]
24 | 1 to 16 (≈ 1.93 to 30.9 µM) | 0.25 to 1 (≈ 0.483 to 1.93 µM) | ≥ 800 | > 800 | ≤ 0.25 | ≤ 0.25 | ≥ 800 | > 800 | – | – | CCNC(=O)Nc1nc2cc(-c3cnc(N4CCC(C)(C(=O)O)CC4)cn3)cc(-c3ccccn3)c2s1 [Compound 40]
25 | 1 to 16 (≈ 1.88 to 30.1 µM) | 1 to 16 (≈ 1.88 to 30.1 µM) | 6.25 (≈ 11.8 µM) | < 12.5 | 0.25 to 1 (≈ 0.47 to 1.88 µM) | ≤ 0.25 | – | – | – | – | CCNC(=O)Nc1nc2cc(-c3cnc(N4CCC(C)(C(=O)OC)CC4)nc3)cc(-c3ccccn3)c2s1 [Compound 169]
